Structures can show the parent of a compound that is named as a salt.
Test: stability of oxybutynin hydrochloride composition during terminal vapor sterilization in prefilled piston syringes

- further impurities after vapor sterilization (1 mg/ml, pH 4.0, polypropylene syringes with piston plugs of conventional rubber material, vapor sterilization): exceeding 0.5%
- stability during thermal sterilization (in words) (aqueous composition, polypropylene (disposable) syringes, piston plugs and closing caps of commonly used rubber materials): high instability or incompatibility
Structure (SMILES): CCN(CC)CC#CCOC(=O)C(O)(c1ccccc1)C1CCCCC1 (centres unmarked) [oxybutynin hydrochloride, 4-diethylaminobut-2-inyl-2-cyclohexyl-2-hydroxy-2-phenyl ethanoate]

From patent US20210308308A1, “SYRINGE AND KIT FOR INTRAVESICAL USE” (Farco-Pharma GmbH, priority 2020, published 2021)
